Laboratory results from patent publication US20260242738A1, “ALK5 INHIBITORS FOR EFFICIENT DERIVATION OF MESENCHYMAL STEM CELLS FROM EMBRYONIC STEM CELLS” (SCRIPPS HEALTH, priority 2022, published 2026).

What was measured:
ES-MSC [1] = assay: ES-MSC on pneumatospun collagen type I scaffold, in vitro culture; type: cell-based, human; settings: 6 weeks in chondrogenic medium
Excerpt: (§1) ES-MSC derived from treatment with ALK-5 inhibitor SB525334, as described in Example 1, produced meniscus cartilage-like tissues when seeded upon blow spun collagen scaffolds in in vitro and in vivo.

ES-MSC microspheroids = assay: Microspheroid building chamber neo-cartilage formation; type: cell-based, human; settings: 3 weeks in chamber
Excerpt: Using a microspheroid building block approach, ES-MSC derived from treatment with ALK-5 inhibitor SB525334, as described in Example 1, were used to produce bone and cartilage (osteochondral) tissues. […] The OC tissue unit was implanted into an ex vivo model to develop biphasic tissue with an upper cartilage and lower calcified cartilage layer (FIG. 11, panels J-M). Both upper and lower tissues were Safranin O and collagen type II positive (FIG. 11, panels J-K), while the lower tissue producing calcified neo tissue (FIG. 11, panel L; von Kossa positive) and osteopontin (FIG. 11, panel M).

ES-MSC [2] = assay: ES-MSC seeded scaffolds implanted subcutaneously into a nude mouse; type: in vivo; settings: 1 week in vitro, then subcutaneous in nude mouse for 5 weeks
Excerpt: as §1

HADC 100 ES-MSC = assay: Chondrogenic gene expression of pellets relative to monolayer controls; type: cell-based, human; settings: HADC 100 ES-MSC pellets
Protocol: (§2) Monolayer-expanded ES-MSC (passage 2-5) were detached using Accutase® and 0.5×10^6 cells in 0.5 ml of chondrogenic medium were centrifuged at 900 rpm (~770 G) for 5 minutes to form high-density pellets. At least 5-6 pellets, for each ES-MSC condition, were cultured in serum-free chondrogenic medium consisting of Dulbecco's Modified Eagle Medium (Mediatech Inc., Manassas, VA), 1×ITS supplement (Sigma-Aldrich, St. Louis, MO), 100 nM Dexamethasone (Sigma), 1.25 mg/ml human serum albumin (Bayer, Leverkusen, Germany), 100 μM ascorbic acid 2-phosphate (Sigma), 1% penicillin/streptomycin/gentamycin (PSG, Gibco, Carlsbad, CA), and 10 ng/ml TGFβ3 (PeproTech, Rocky Hill, NJ). Pellets for ex vivo implantation were cultured for 3 days before implantation; pellets for histologic or gene expression analysis were maintained in culture for 3 weeks with media changes every 3 to 4 days.
Total RNA was extracted from using the RNeasy kit as recommended by the manufacturer (QIAGEN, Valencia, CA). […] Expression of the following genes was quantified POU5F1/OCT4 and SOX2 (for pluripotency); FOXA1 and SOX17 (for endoderm); NES and PAX6 (for ectoderm); NKX2-5, MSX1, NCAM1, and SOX9 (for mesoderm); ITGB1/CD29 (for MSC phenotype); and COL1A1, COL2A1, COL10A1, COMP, ACAN, and SOX9 and RUNX2 (for chondrogenesis). […]

H9 ES-MSC = assay: Pellet culture chondrogenesis, histology and immunohistochemistry; type: cell-based, human; settings: 3 weeks, Safranin-O, collagen type I and II
Protocol: as §2
Cell pellets and explants were fixed in Z-Fix (3.7% formaldehyde, Anatech Ltd., Battle Creek, MI), processed for embedding in paraffin, and cut into 4 μm-thick sections. Sections were stained with Safranin-O and Fast Green to visualize glycosaminoglycan distribution in the tissues. Alzarin Red S staining was used to detect the presence of mineralized matrix.
For assessment of collagen types I and II, sections were pretreated with pepsin (Digest-All 3, Thermo Fisher Scientific) for 9 minutes at 37° C. in a humid chamber before incubation at 4° C. for 12 to 16 hours with the following primary antibodies: rabbit anti-human collagen type I antibody (Ab 34710, Abcam, Cambridge, MA) 1 μg/ml; or mouse anti-human collagen type II (II-II6B3, Hybridoma Bank, University of Iowa) 2 μg/ml. For color development, the ImmPRESS secondary DAB (brown) or AP (red) kits (Vector Laboratories, Burlingame, CA) was used. Isotype controls were used to monitor non-specific staining.

[3] = test system: ESC cell lines (H9, AND-1, AND-2, and SHEF-1); settings: monolayer cultures on Matrigel coated flasks, before sorting; cited from earlier work
HAD ES-MSC = assay: Fibrin-ECM hydrogel construct culture on needle array; type: cell-based, human; settings: 20×10^6 cells per ml, 3 weeks of culture, N=8
Protocol: Monolayer cultured ES-MSC were suspended in a hydrogel wafer composed of collagen II (Innovative Research Inc. Novi, MI), hyaluronate (Supartz FX sodium hyaluronate, Seikagaku Corp. Tokyo, Japan), chondroitin sulfate (Sigma-Aldrich) and fibrin (Baxter Healthcare, Deerfield, IL) at a density of 20×10^6 cells per ml. The fibrinogen and thrombin components were prepared separately. To each fibrinogen component, 2 mg/ml sodium hyaluronate, 2 mg/ml chondroitin sulfate and 6 mg/ml collagen II was added (2× concentration of final). Cells were added to the thrombin component at a density of 40×10^6 cells per ml. Thrombin and fibrinogen components in individual syringes were attached to a Baxter DUO mixing syringe and extruded to form the coagulated constructs. The constructs were either directly implanted into ex vivo cartilage tissue or coagulated in 6 well tissue culture plates for 4 to 8 minutes before 4-6 ml of chondrogenic medium was added. To prevent shrinkage of the constructs during culture, the gels were held on AdminPatch microneedle arrays (AdminMed, Sunnyvale, CA) for the duration of their culture.
Cell pellets and explants were fixed in Z-Fix (3.7% formaldehyde, Anatech Ltd., Battle Creek, MI), processed for embedding in paraffin, and cut into 4 μm-thick sections. Sections were stained with Safranin-O and Fast Green to visualize glycosaminoglycan distribution in the tissues. […]

| Compound | Safranin O staining (GAG deposition) on collagen scaffold (ES-MSC [1]) | cartilage GAGs staining of neo-cartilage tissue (ES-MSC microspheroids) | collagen type II staining of neo-cartilage tissue (ES-MSC microspheroids) | meniscus cartilage-like tissue, Safranin O staining (ES-MSC [2]) | chondrogenic genes (COL2A1, ACAN, COMP and SOX9) relative to monolayer controls (HADC 100 ES-MSC) | cartilage-like tissue formation in high density pellets (H9 ES-MSC) | CD73+CD90+CD34− cell population [3] | cartilaginous tissue in fibrin-ECM construct (Safranin O fast green) (HAD ES-MSC) |
| --- | --- | --- | --- | --- | --- | --- | --- | --- |
| Cc1cccc(-c2[nH]c(C(C)(C)C)nc2-c2ccc3nccnc3c2)n1 [SB525334] | extensive GAG deposition | positive for cartilage GAGs | positive for collagen type II | strong Safranin O staining profile |  |  |  |  |
| NC(=O)c1ccc(-c2nc(-c3ccc4c(c3)OCO4)c(-c3ccccn3)[nH]2)cc1 [SB431542] |  |  |  |  | higher levels | consistently produced cartilage like-tissue | 42% | production of cartilaginous tissue |
